Legend:
[1] = tested on: OVCAR-3; experiment: OVCAR-3 viability assay (CellTiter-Glo, 72 hours); assay type: cell-based; settings: Homo sapiens; OVCAR-3 cells
Procedure: Human […] cell line, MV4-11_(ATCC, Cat #CRL-9591), NSCLC (Non-small cell lung cancer) cell line H460 (ATCC, Cat #HTB-177), A2780 (ECACC, Cat #93112519) and OVCAR-3(ATCC, Cat #HTB-161) were obtained from ATCC. Cells were grown in RPMI-1640 media (Invitrogen, Cat #22400-089) supplemented with 10% FBS (Invitrogen, Cat #10099141) and 1% penicillin/streptomycin (Invitrogen, Cat #15070063) and cultured at 37° C., 5% CO2 in a humidified chamber. All cell lines were routinely tested for mycoplasma.
To effect of the CDK7 inhibitor to inhibit the growth of target cancer cells, viability assay were conducted a 72 hour time period. Briefly, the candidate cell line was plated in 96 well plate at the following density of cells respectively. 1×10^4 cells/well for MV4-11, 5×10^3 for H460 and OVCAR-3, and 1×10^3 for A2780. After 24 hours, the cells were treated with various concentrations of the compound (ranging from 0.0015 uM to 10 uM). DMSO solvent without compound served as a control and final DMSO concentration lest than 0.1%. After 72 hours of incubation at 37° C., 5% CO2 incubator, cells were analyzed for the viability using the CellTiter-Glo Luminescent Cell Viability Assay (Promega, Cat #G7570). All viability assays were performed in duplicate and Luminescence was read using an Envision (Perkin Elmer, USA). Data was analyzed using XLfit software.

[2] = target: T1, CDK2/Cyclin A (Homo sapiens, UniProt P24941); experiment: Enzymatic assay for CDK2 (LANCE Ultra kinase assay, FRET based); assay type: biochemical; settings: ATP at Km
T1 construct: purchased Invitrogen PV6290
Outline: (§1)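 Inhibition was measured at ATP Km with 68 nM ULight-MBP peptide and CDK2/Cyclin A ([…]) or CDK5/p25 ([…]), using 8-dose 4-fold compound dilutions from DMSO. Kinase reaction ran 60 min at 23° C, then Eu anti-phospho-MBP plus EDTA were added for another 60 min before the fluorescence read.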

[3] = target: T2, CDK7/Cyclin H/MNAT1 (Homo sapiens, UniProt P50613); experiment: Enzymatic assay for CDK7 (LANCE Ultra kinase assay, FRET based); assay type: biochemical; settings: for IC50: ATP at Km
T2 construct: purchased Invitrogen PR6749B
Outline: (§2)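 Purified CDK–cyclin enzyme, ATP at Km; ULight peptide substrate; TR-FRET via Eu anti-phospho-Ab; inhibition scored.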

[4] = target: T3, CDK5/p25 (Homo sapiens, UniProt Q00535); experiment: Enzymatic assay for CDK5 (LANCE Ultra kinase assay, FRET based); assay type: biochemical; settings: ATP at Km
T3 construct: purchased Invitrogen PR8543B
Outline: as §1

[5] = tested on: A2780; experiment: A2780 viability assay (CellTiter-Glo, 72 hours); assay type: cell-based; settings: Homo sapiens; A2780 cells
Outline: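 RPMI-1640/10% FBS; plate cells (MV4-11 1×10^4, OVCAR-3 5×10^3, A2780 1×10^3 per well); 24 h later add compound 0.0015–10 uM; 72 h, 37° C; CellTiter-Glo luminescence, duplicate wells.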

[6] = target: T4, CDK1/Cyclin B (Homo sapiens, UniProt P06493); experiment: Enzymatic assay for CDK1 (LANCE Ultra kinase assay, FRET based); assay type: biochemical; settings: ATP at Km; read-out: CDK1 enzymatic activity IC50
T4 construct: purchased Invitrogen PR4768C
Outline: as §2

T2 sequence (P50613 whole entry): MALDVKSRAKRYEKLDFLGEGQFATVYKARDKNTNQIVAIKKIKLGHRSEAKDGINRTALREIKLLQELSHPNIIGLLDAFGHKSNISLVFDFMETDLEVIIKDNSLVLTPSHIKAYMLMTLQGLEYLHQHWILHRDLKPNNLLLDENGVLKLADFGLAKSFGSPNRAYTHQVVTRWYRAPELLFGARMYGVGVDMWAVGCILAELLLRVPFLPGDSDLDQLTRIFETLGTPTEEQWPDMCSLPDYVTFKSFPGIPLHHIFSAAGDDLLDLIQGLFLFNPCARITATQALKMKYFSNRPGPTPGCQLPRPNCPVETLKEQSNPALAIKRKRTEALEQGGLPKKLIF
T2 sequence (P51946 whole entry partner): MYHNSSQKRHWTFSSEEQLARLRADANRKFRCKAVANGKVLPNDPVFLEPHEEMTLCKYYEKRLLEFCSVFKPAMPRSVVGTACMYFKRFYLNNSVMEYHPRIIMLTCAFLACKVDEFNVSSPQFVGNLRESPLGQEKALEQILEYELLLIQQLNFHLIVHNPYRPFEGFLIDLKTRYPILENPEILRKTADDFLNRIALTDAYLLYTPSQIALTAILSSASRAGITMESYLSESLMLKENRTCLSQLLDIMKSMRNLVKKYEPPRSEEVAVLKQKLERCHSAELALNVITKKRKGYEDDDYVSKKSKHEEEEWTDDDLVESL
T2 sequence (P51948 whole entry partner): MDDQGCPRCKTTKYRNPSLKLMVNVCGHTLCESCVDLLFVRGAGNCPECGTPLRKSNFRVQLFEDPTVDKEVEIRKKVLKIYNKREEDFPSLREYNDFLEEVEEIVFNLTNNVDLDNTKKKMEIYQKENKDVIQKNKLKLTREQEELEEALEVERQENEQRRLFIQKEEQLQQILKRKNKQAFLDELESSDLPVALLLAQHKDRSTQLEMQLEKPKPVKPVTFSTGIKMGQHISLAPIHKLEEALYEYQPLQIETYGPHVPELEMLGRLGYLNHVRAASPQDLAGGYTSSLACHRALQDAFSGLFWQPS
T3 sequence (Q00535 whole entry): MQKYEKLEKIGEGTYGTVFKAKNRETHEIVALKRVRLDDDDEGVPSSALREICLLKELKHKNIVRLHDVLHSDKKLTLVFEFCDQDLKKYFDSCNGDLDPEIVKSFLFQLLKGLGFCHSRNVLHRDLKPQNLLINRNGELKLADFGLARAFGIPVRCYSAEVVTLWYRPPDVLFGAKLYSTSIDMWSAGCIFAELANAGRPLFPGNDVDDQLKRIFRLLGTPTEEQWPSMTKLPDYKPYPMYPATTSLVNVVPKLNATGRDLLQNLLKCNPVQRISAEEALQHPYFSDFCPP
T3 sequence (Q15078 99-307 partner limits assumed): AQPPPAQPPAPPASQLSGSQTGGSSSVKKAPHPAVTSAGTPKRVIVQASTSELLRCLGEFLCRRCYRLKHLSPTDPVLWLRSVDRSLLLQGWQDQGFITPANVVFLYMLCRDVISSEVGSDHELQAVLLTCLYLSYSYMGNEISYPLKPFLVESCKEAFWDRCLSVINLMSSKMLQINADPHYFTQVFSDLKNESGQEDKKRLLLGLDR
T4 sequence (P06493 whole entry): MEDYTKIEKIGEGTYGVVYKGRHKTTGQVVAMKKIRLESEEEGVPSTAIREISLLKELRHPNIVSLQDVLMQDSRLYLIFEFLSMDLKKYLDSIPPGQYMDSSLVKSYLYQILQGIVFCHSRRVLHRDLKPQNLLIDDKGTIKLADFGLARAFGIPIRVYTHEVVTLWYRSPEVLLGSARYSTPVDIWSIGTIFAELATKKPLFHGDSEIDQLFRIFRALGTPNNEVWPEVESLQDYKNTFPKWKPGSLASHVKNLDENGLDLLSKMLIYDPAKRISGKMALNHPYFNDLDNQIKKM
T4 sequence (P14635 whole entry partner): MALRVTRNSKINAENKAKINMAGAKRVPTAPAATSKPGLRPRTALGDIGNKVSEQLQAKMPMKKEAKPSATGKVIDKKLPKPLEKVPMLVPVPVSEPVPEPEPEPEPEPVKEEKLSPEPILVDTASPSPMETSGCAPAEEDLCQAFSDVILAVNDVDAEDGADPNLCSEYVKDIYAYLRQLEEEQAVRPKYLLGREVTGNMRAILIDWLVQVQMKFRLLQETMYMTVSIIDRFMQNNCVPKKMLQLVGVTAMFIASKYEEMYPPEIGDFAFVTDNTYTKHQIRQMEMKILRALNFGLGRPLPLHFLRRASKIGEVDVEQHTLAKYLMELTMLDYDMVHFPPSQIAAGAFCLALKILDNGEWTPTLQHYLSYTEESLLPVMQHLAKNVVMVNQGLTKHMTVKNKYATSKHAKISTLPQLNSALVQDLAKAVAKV

Row | Structure (SMILES) | IC50 [1] [nM] | IC50 [2] [nM] | IC50 [3] [nM] | CDK1/CDK7: Selectivity of CDK7 inhibition over CDK1 inhibition [3] | CDK2/CDK7: Selectivity of CDK7 inhibition over CDK2 inhibition [3] | CDK5/CDK7: Selectivity of CDK7 inhibition over CDK5 inhibition [3] | IC50 [4] [nM] | IC50 [5] [nM] | IC50 [6] [nM]
1 | CC(C)c1cnn2c(NCc3ccccc3-c3nccc4cc(NC(=O)/C=C/CN(C)C)ccc34)nc(N3CC4CCC(C3)N4C)nc12 [Compound 123] | < 1000 | > 1000 | < 100 | A (A indicates [fold] > 500) | A (A indicates [fold] > 500) | A (A indicates [fold] > 500) | > 1000 | < 1000 | > 1000
2 | C=C(F)C(=O)Nc1ccc2c(-c3ccccc3CNc3nc(NCC4CNCCO4)nc4c(C(C)C)cnn34)nccc2c1 (racemic) [Compound 80] | < 1000 | > 1000 | < 100 | A (A indicates [fold] > 500) | A (A indicates [fold] > 500) | A (A indicates [fold] > 500) | > 1000 | < 1000 | > 1000
3 | CC(C)c1cnn2c(NCc3ccccc3-c3nccc4cc(NC(=O)/C=C/CN(C)C)ccc34)nc(NC3CC4CCC(C3)N4C)nc12 (stereo not drawn) [Compound 130] | 1000 to 10000 | > 1000 | < 100 | A (A indicates [fold] > 500) | A (A indicates [fold] > 500) | A (A indicates [fold] > 500) | > 1000 | < 1000 | > 1000
4 | C=C(F)C(=O)Nc1ccc2c(-c3ccccc3CNc3nc(N4CCC(F)CC4)nc4c(C(C)C)cnn34)nccc2c1 [Compound 90] | < 1000 | > 1000 | 100 to 1000 | B (B indicates 50 < [fold] ≤ 500) | B (B indicates 50 < [fold] ≤ 500) | B (B indicates 50 < [fold] ≤ 500) | > 1000 | < 1000 | > 1000
5 | C=C(F)C(=O)Nc1ccc2c(-c3ccccc3CNc3nc(N4CCC(OC(C)C)CC4)nc4c(C(C)C)cnn34)nccc2c1 [Compound 89] | 1000 to 10000 | > 1000 | > 1000 | C (C indicates [fold] ≤ 50) | C (C indicates [fold] ≤ 50) | C (C indicates [fold] ≤ 50) | > 1000 | 1000 to 10000 | > 1000
6 | C=C(F)C(=O)Nc1ccc2c(-c3ccccc3CNc3nc(NC4CC(OC)C4)nc4c(C(C)C)cnn34)nccc2c1 (stereo not drawn) [Compound 99] | < 1000 | > 1000 | 100 to 1000 | B (B indicates 50 < [fold] ≤ 500) | B (B indicates 50 < [fold] ≤ 500) | B (B indicates 50 < [fold] ≤ 500) | > 1000 | < 1000 | > 1000
7 | C=C(F)C(=O)Nc1ccc2c(-c3ccccc3CNc3nc(N4CCC(OC)CC4)nc4c(C(C)C)cnn34)nccc2c1 [Compound 88] | < 1000 | > 1000 | 100 to 1000 | B (B indicates 50 < [fold] ≤ 500) | B (B indicates 50 < [fold] ≤ 500) | B (B indicates 50 < [fold] ≤ 500) | > 1000 | < 1000 | > 1000

Second part, the molecule after the results:

Row | IC50 [1] [nM] | IC50 [2] [nM] | IC50 [3] [nM] | CDK1/CDK7: Selectivity of CDK7 inhibition over CDK1 inhibition [3] | CDK2/CDK7: Selectivity of CDK7 inhibition over CDK2 inhibition [3] | CDK5/CDK7: Selectivity of CDK7 inhibition over CDK5 inhibition [3] | IC50 [4] [nM] | IC50 [5] [nM] | IC50 [6] [nM] | Structure (SMILES)
8 | 1000 to 10000 | > 1000 | < 100 | A (A indicates [fold] > 500) | A (A indicates [fold] > 500) | A (A indicates [fold] > 500) | > 1000 | 1000 to 10000 | > 1000 | CC(C)c1cnn2c(NCc3ccccc3-c3nccc4cc(NC(=O)/C=C/CN(C)C)ccc34)nc(NC[C@H]3CNC[C@@H]3O)nc12 [Compound 109]
9 | 1000 to 10000 | > 1000 | < 100 | A (A indicates [fold] > 500) | A (A indicates [fold] > 500) | A (A indicates [fold] > 500) | > 1000 | < 1000 | > 1000 | CC(C)c1cnn2c(NCc3ccccc3-c3nccc4cc(NC(=O)/C=C/CN(C)C)ccc34)nc(N[C@@H]3CC[C@@H](C)NC3)nc12 [Compound 154]
10 | < 1000 | > 1000 | 100 to 1000 | B (B indicates 50 < [fold] ≤ 500) | B (B indicates 50 < [fold] ≤ 500) | B (B indicates 50 < [fold] ≤ 500) | > 1000 | < 1000 | > 1000 | C=C(F)C(=O)Nc1ccc2c(-c3ccccc3CNc3nc(N4CO[C@H]5CN(C)CC[C@@H]5C4)nc4c(C(C)C)cnn34)nccc2c1 [Compound 165]
11 | > 10000 | > 1000 | < 100 | A (A indicates [fold] > 500) | A (A indicates [fold] > 500) | A (A indicates [fold] > 500) | > 1000 | < 1000 | > 1000 | C=C(F)C(=O)Nc1ccc2c(-c3ccccc3CNc3nc(N[C@@H]4CCCNC4)nc4c(C(C)C)cnn34)nccc2c1 [Compound 166]
12 | < 1000 | > 1000 | 100 to 1000 | B (B indicates 50 < [fold] ≤ 500) | B (B indicates 50 < [fold] ≤ 500) | B (B indicates 50 < [fold] ≤ 500) | > 1000 | < 1000 | > 1000 | CC(C)c1cnn2c(NCc3ccccc3-c3nccc4cc(NC(=O)/C=C/CN(C)C)ccc34)nc(N3CCc4sccc4C3)nc12 [Compound 101]
13 | < 1000 | > 1000 | < 100 | B (B indicates 50 < [fold] ≤ 500) | B (B indicates 50 < [fold] ≤ 500) | B (B indicates 50 < [fold] ≤ 500) | > 1000 | < 1000 | > 1000 | CC(C)c1cnn2c(NCc3ccccc3-c3nccc4cc(NC(=O)/C=C/CN(C)C)ccc34)nc(N3CCC4(CCN(C)C4)CC3)nc12 [Compound 121]
14 | 1000 to 10000 | > 1000 | < 100 | B (B indicates 50 < [fold] ≤ 500) | B (B indicates 50 < [fold] ≤ 500) | B (B indicates 50 < [fold] ≤ 500) | > 1000 | < 1000 | > 1000 | C=C(F)C(=O)Nc1ccc2c(-c3ccccc3CNc3nc(NC[C@@H]4CCNC[C@H]4O)nc4c(C(C)C)cnn34)nccc2c1 [Compound 157]
15 | < 1000 | > 1000 | 100 to 1000 | B (B indicates 50 < [fold] ≤ 500) | B (B indicates 50 < [fold] ≤ 500) | B (B indicates 50 < [fold] ≤ 500) | > 1000 | < 1000 | > 1000 | CC(C)c1cnn2c(NCc3ccccc3-c3nccc4cc(NC(=O)/C=C/CN(C)C)ccc34)nc(N3CCC4(CCOC4)CC3)nc12 [Compound 117]

— patent publication US12606561B2, “Substituted pyrazolo[1,5-a][1,3,5]triazines as CDK inhibitors” (QURIENT CO., LTD., priority 2018, dated 2026)
